US7750049B2, “O-substituted-dibenzyl urea-derivatives as TRPV1 receptor antagonists” (Pharmeste S.R.L., priority 2006, dated 2010)

Experiments:
TRPV1 = target: T1, TRPV1 (Rattus norvegicus, UniProt O35433); assay: Ca2+ fluorescence measurements in cultured rat trigeminal ganglia (capsaicin-evoked [Ca2+]i mobilization); type: cell-based; details: 30 nM capsaicin, rat trigeminal neuron cells; read-out: IC50 of inhibiting capsaicin-evoked [Ca2+]i mobilization
T1 construct: Ca^2+ Fluorescence Measurements in Cultured Rat Trigeminal Ganglia; endogenous in cells; host or cells: cultured rat trigeminal ganglion neurons (primary culture)
T1 sequence (O35433 whole entry): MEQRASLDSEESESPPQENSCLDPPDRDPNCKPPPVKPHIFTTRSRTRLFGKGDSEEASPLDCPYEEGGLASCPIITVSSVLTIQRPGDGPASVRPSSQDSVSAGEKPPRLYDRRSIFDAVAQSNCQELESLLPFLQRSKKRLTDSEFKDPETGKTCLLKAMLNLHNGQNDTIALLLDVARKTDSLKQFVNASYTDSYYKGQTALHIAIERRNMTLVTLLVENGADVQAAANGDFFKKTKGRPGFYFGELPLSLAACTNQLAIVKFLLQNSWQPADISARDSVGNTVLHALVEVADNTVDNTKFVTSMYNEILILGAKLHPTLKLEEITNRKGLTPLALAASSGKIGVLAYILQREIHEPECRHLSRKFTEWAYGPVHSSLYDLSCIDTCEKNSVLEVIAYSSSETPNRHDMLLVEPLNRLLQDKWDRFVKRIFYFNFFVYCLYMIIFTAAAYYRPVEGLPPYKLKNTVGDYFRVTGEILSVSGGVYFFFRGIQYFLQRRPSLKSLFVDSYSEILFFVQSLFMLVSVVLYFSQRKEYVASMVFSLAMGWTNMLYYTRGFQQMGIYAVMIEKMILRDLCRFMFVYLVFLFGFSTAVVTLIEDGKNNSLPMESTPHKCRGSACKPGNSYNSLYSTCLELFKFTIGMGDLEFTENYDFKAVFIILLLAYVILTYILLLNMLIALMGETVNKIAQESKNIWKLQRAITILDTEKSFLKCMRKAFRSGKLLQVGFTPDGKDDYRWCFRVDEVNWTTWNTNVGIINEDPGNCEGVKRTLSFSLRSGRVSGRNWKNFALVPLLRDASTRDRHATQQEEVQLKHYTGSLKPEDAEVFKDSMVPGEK
Experimental: The calibration curve was determined using a buffer containing Fura-2-AM-ester and definite concentrations of free Ca^2+. This curve was then used to convert the data obtained from F340/F380 ratio to [Ca^2+]i (nM) (Kudo, Y). The effects of pretreatments with compounds 6a-6m on the increase in [Ca^2]i produced by 30 nM capsaicin were studied.
Capsaicin (30 nM) increased [Ca^2+]i in the vast majority (95%) of rat trigeminal neuron cells, which were therefore identified as TRPV1-expressing neurons.

[1] = Cytotoxicity on Hep G2 cells; type: cell-based; details: human
Experimental: (§1) LogD Values at pH=7.0 were calculated in silico, while the in vitro tests analysed: • metabolic stability in cryopreserved human hepatocytes; • cytotoxicity on Hep G2 cells; • cassette pharmacokinetics in rat.
The cells were cultured for 3 days, trypsinized and re-suspended in 20 ml of culture medium. The cells were then counted and diluted to obtain a final concentration suitable for seeding 40.000 cells/well in 96-well cell culture plates (200 μl/well).
The cells were seeded in columns 1 to 11 (column 12 contained medium without cells), then placed for 16-24 hours at 37° C. with 5% of CO2.

vanilloid TRPV1 receptor = target: T2, vanilloid TRPV1 receptor (Rattus norvegicus, UniProt O35433); assay: [3H]RTX radioligand binding assay in rat spinal cord membranes; details: displacement of [3H]RTX (0.4 nM), 37° C., 60 min
T2 construct: the spinal cord was removed and disrupted using a Polytron tissue homogenizer; from tissue; host or cells: spinal cord of male Sprague-Dawley rats (membranes)
T2 sequence (O35433 whole entry): as above
Experimental: Male Sprague-Dawley rats with body weight between 250 to 350 g were used. For binding assays the rats were decapitated under anesthesia and the spinal cord was removed and disrupted using a Polytron tissue homogenizer in ice cold buffer containing 5 mM KCl, 5.8 mM NaCl, 0.75 mM CaCl2, 2 mM MgCl2, 320 mM sucrose, 10 mM Hepes, pH 8.6 (Szallasi and Blunberg, 1992; 1993). In competition experiments, the membranes were incubated at 37° C. for 60 min with [^3H]RTX (0.4 nM) and with increasing concentrations of test compounds in the range from 0.1 nM to 3 μM. Non-specific binding was evaluated in the presence of 1 μM RTX. Saturation and competition studies were analyzed with the Ligand program (Bradford, 1976; Munson and Rodbard, 1980).
Compounds 6a-6m displaced [^3H]RTX from its binding site in rat spinal cord membranes at low concentrations, as indicated by the Ki values reported in Table 1.

[2] = Preliminary cassette pharmacokinetic study in catheterized conscious rats; type: in vivo; details: plasma; rat, oral, cassette dosing; read-out: Pharmacokinetics in Rat Oral t1/2
Experimental: as §1
Compounds were administered together to rats. The compounds were stored at −20° C. when not used. The formulation, route of administration, plasma samples identification and pharmacokinetic analysis were performed according to standard protocols (Raynaud, F I et al, 2004; Manitpisitkul, P. et al., 2004; Singh S. et al., 2006).

[3] = system: capsaicin-induced secondary allodynia; assay: Capsaicin-induced secondary allodynia in rat; type: in vivo; details: 30 μmol/kg p.o., 2 hours prior to capsaicin, 90 min after capsaicin challenge
Experimental: Capsaicin (5 nmols/50 μl/paw) was injected in the plantar surface of the glabrous skin of the right paw of rats anesthetized with diethyl ether (Chaplan et al., 1994). Compounds 6c and 6d were orally administrated 2 hours prior to capsaicin injection. Tactile allodynia was evaluated 90 min after capsaicin challenge. In a more extended study, compounds 6c and 6d were tested against capsaicin-induced secondary allodynia in rats.

[4] = value from Ref. 8 (Rami et al. 2006); cited from earlier work

| SMILES | IC50 (TRPV1) [µM] | Ki (vanilloid TRPV1 receptor) [µM] | other results |
| --- | --- | --- | --- |
| COc1cc(CNC(=O)NCc2ccc(C(F)(F)F)cc2)c(Cl)cc1OC[C@@H](O)CO [(S)-(+)6c] | > 1 |  |  |
| COc1cc(CNC(=O)NCc2ccc(C(F)(F)F)cc2)c(Br)cc1OCC(O)CO (racemic) [Compound 6d, 1-[4-(2,3-Dihydroxypropoxy)-2-bromo-5-methoxybenzyl]-3-[4-(trifluoromethyl)-benzyl]urea] | 0.08 | 0.086 | IC50 [1]: 70 µM; half-life [2]: 1.08 h; % of inhibition of the pro-allodinic effect of capsaicin [3]: 47.9% |
| COc1cc(CNC(=O)NCc2ccc(C(C)(C)C)cc2)c(Cl)cc1OCCCO [Compound 6f] | 0.5 | 0.253 |  |
| COc1cc(CNC(=O)NCc2ccc(C(F)(F)F)cc2)c(Br)cc1OCCO [Compound 6h, 1-[4-(2-Hydroxyethoxy)-2-bromo-5-methoxybenzyl]-3-[4-(trifluoromethyl)-benzyl]urea] | 0.119 | 0.15 |  |
| COc1cc(CNC(=O)NCc2ccc(C(F)(F)F)cc2)c(Br)cc1OC[C@H](O)CO [(R)-(−)6d, 1-[4-((R)-(−)-2,3-dihydroxypropoxy)-2-bromo-5-methoxybenzyl]-3-[4-(trifluoromethyl)-benzyl]urea] | 0.053 |  | half-life [2]: 4.43 h |
| COc1cc(CNC(=O)NCc2ccc(C(F)(F)F)cc2)c(-c2ccc(Cl)cc2)cc1OC[C@H](O)CO [Compound 6m, 1-[4-(2,3-dihydroxypropoxy)-2-(4-chloro)phenyl-5-methoxybenzyl]-3-[4-(trifluoromethyl)-benzyl]urea] |  | 0.117 | melting point: 174 °C |
| COc1cc(CNC(=O)NCc2ccc(C(F)(F)F)cc2)c(Cl)cc1OC[C@H](O)CO [(R)-(−)6c, 1-[4-((R)-(−)-2,3-dihydroxypropoxy)-2-chloro-5-methoxybenzyl]-3-[4-(trifluoromethyl)-benzyl]urea] | 0.007 |  | half-life [2]: 7.7 h |
| COc1cc(CNC(=O)NCc2ccc(C(F)(F)F)cc2)c(Cl)cc1OCCCO [Compound 6e] | > 1 | > 1 |  |
| COc1cc(CNC(=O)NCc2ccc(C(F)(F)F)cc2)c(Br)cc1OC[C@@H](O)CO [(S)-(+)6d] | > 1 |  |  |
| COc1cc(CNC(=O)NCc2ccc(C(F)(F)F)cc2)c(Cl)cc1OCCO [Compound 6g, 1-[4-(2-hydroxyethoxy)-2-chloro-5-methoxybenzyl]-3-[4-(trifluoromethyl)-benzyl]urea] | 0.164 | > 1 |  |
| COc1cc(CNC(=O)NCc2ccc(C(F)(F)F)cc2)c(-c2ccccc2)cc1OCC(O)CO (stereo not shown) [Compound 6i, 1-[4-(2,3-dihydroxypropoxy)-2-phenyl-5-methoxybenzyl]-3-[4-(trifluoromethyl)-benzyl]urea] | > 1 | 0.273 |  |
| O=C(Nc1ccccc1Br)N[C@@H]1CCN(c2ccc(C(F)(F)F)cn2)C1 [SB-705498, reference compound] |  |  | IC50 [1]: 20.3 µM; Pharmacokinetics in Rat Oral t1/2 [4]: 180 ^Ref. 8 min |
| COc1cc(CNC(=O)NCc2ccc(C(F)(F)F)cc2)c(-c2cccnc2)cc1OCC(O)CO (stereo not shown) [Compound 6l, 1-[4-(2,3-dihydroxypropoxy)-2-(pyridin-3-yl)-5-methoxybenzyl]-3-[4-(trifluoromethyl)-benzyl]urea] | > 1 | 0.172 |  |
| COc1cc(CNC(=O)NCc2ccc(C(C)(C)C)cc2)c(Cl)cc1OCCO [Compound 6a, 1-[4-(2-hydroxyethoxy)-2-chloro-5-methoxybenzyl]-3-[4-(tert-butyl)-benzyl]urea] | 0.859 | 0.175 |  |
| COc1cc(CNC(=O)NCc2ccc(C(F)(F)F)cc2)c(Cl)cc1OCC(O)CO (racemic) [Compound 6c, 1-[4-(2,3-Dihydroxypropoxy)-2-chloro-5-methoxybenzyl]-3-[4-(trifluoromethyl)-benzyl]urea] | 0.0102 | 0.06 | IC50 [1]: 52 µM; half-life [2]: 1.3 h; % of inhibition of the pro-allodinic effect of capsaicin [3]: 53.1% |
